The assay has as its target human IDO1 (Homo sapiens, UniProt P14902). The assay is described as follows: Assessment of human IDO-1 inhibitory activity in HEK cells (human IDO1/HEK293 cells, kynurenine read-out with Ehrlich reagent, absorbance 490 nm). In kind it is cell-based. Set-up: expressed in transfected cells. Particulars: HEK Human IDO-1 cellular assay. The procedure, abridged: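 Kynurenine output from stably IDO1-transfected HEK293 cells (10,000/well, phenol red-free RPMI, 10% FBS) after 20 h compound exposure at 37 °C. The reaction was stopped with 0.2% TCA and heated 30 min at 50 °C, then the supernatant was mixed with Ehrlich reagent and read at 490 nm. IC50 was set against DMSO and a 500 nM reference standard as 0 and 100% inhibition.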

SMILES strings stand for the structures.

For 51 compounds, IC50 results are on record in patent publication US9790169B2, “IDO inhibitors” (BRISTOL-MYERS SQUIBB COMPANY, priority 2015, dated 2017).

human IDO1, sequence (P14902 whole entry): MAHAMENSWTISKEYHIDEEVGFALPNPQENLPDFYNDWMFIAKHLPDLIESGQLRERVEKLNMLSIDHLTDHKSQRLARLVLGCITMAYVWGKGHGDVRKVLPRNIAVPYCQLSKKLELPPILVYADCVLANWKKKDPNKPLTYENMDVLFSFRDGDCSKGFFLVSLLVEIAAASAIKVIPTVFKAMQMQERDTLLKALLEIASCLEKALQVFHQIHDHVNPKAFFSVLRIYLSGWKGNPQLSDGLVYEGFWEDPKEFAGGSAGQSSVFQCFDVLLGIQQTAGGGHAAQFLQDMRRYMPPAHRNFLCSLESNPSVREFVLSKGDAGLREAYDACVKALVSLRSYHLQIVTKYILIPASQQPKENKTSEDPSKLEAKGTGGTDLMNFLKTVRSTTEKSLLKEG

`CC[C@@H](CC(=O)O)c1ccc(N(CC)C2CCOCC2)c(Nc2nc3cc(C)nn3cc2F)c1` (single isomer, unassigned) [Example 469]: the IC50 was greater than 50 nM.

For the compound `CC[C@@H](CC(=O)O)c1ccc(N(CC)C2CCOCC2)c(Nc2ccn3nc(C)c(F)c3c2)c1` (single isomer, unassigned) [Example 470], the half-inhibitory concentration (IC50) was less than 50 nM.

As to `CC[C@@H](CC(=O)O)c1ccc(N(CC)C2CCOCC2)c(Nc2ccc3nncn3c2)c1` (single isomer, unassigned) [Example 471], the IC50 was greater than 50 nM.

With `CC[C@@H](CC(=O)O)c1ccc(N(CC)C2CCOCC2)c(Nc2cnc3cnccn23)c1` (single isomer, unassigned) [Example 472], the IC50 is greater than 50 nM.

In the case of `CC[C@@H](CC(=O)O)c1ccc(N(CC)C2CCOCC2)c(Nc2ccn3nc(C)c(F)c3n2)c1` (single isomer, unassigned) [Example 473], the IC50 is greater than 50 nM.

For the compound `CCOc1ccc(Nc2cc([C@@H](CC)CC(=O)O)ccc2N(CC)C2CCOCC2)cc1` (single isomer, unassigned) [Example 474], the IC50 is less than 5 nM.

As for `CC[C@@H](CC(=O)O)c1ccc(N(CC)C2CCOCC2)c(Nc2ccc(OCC(F)(F)F)cc2)c1` (single isomer, unassigned) [Example 475], the half-maximal inhibitory concentration (IC50) is less than 5 nM.

With `CC[C@@H](CC(=O)O)c1ccc(N(CC)C2CCOCC2)c(Nc2ccc(OCC3CC3)cc2)c1` (single isomer, unassigned) [Example 476], the IC50 was less than 5 nM.

For `CCc1ccc(Nc2cc([C@@H](CC)CC(=O)O)ccc2N(CC)C2CCOCC2)cc1` (single isomer, unassigned) [Example 477], the half-inhibitory concentration (IC50) was less than 5 nM.

`CC[C@@H](CC(=O)O)c1ccc(N(CC)C2CCOCC2)c(Nc2ccc(OC)nc2)c1` (single isomer, unassigned) [Example 478]: the IC50 is less than 5 nM.

On to `CC[C@@H](CC(=O)O)c1ccc(N(CC)C2CCOCC2)c(Nc2cnc(OC)nc2)c1` (single isomer, unassigned) [Example 479], for which the IC50 is less than 5 nM.

For `CC[C@@H](CC(=O)O)c1ccc(N(CC)C2CCOCC2)c(Nc2cnc(OCC3CC3)nc2)c1` (single isomer, unassigned) [Example 480], the IC50 is less than 5 nM.

As to `CC[C@@H](CC(=O)O)c1ccc(N(CC)C2CCOCC2)c(Nc2ccc(Cl)c(OC)c2)c1` (single isomer, unassigned) [Example 481], the half-inhibitory concentration (IC50) was less than 5 nM.

Regarding `CCOc1ccc(Nc2cc([C@@H](CC)CC(=O)O)ccc2N(CC)C2CCOCC2)nc1` (single isomer, unassigned) [Example 482], the 50% inhibitory concentration (IC50) was less than 5 nM.

As to `CC[C@@H](CC(=O)O)c1ccc(N(CC)C2CCOCC2)c(Nc2cn3ccnc3cn2)c1` (single isomer, unassigned) [Example 483], the 50% inhibitory concentration (IC50) was greater than 50 nM.

Regarding `CC[C@@H](CC(=O)O)c1ccc(N(CC)C2CCOCC2)c(Nc2ccc3nc(C)sc3c2)c1` (single isomer, unassigned) [Example 484], the IC50 was less than 5 nM.

With `CC[C@@H](CC(=O)O)c1ccc(N(CC)C2CCOCC2)c(Nc2ccc(S(=O)(=O)CC)cc2)c1` (single isomer, unassigned) [Example 485], the IC50 is less than 50 nM.

As to `CC[C@@H](CC(=O)O)c1ccc(N(CC)C2CCOCC2)c(Nc2ccc3c(c2)OCCO3)c1` (single isomer, unassigned) [Example 486], the IC50 is greater than 50 nM.

With `CCC(CC(=O)O)c1ccc(N(CC)C2CCOCC2)c(NC(=O)Nc2ccc(C)cc2)c1` (single isomer, unassigned) [Example 487 Enantiomer 1, 3-(4-(Ethyl(tetrahydro-2H-pyran-4-yl)amino)-3-(3-(p-tolyl)ureido)phenyl)pentanoic acid], the half-maximal inhibitory concentration (IC50) is less than 5 nM.

For `CCC(CC(=O)O)c1ccc(N(CC)C2CCOCC2)c(NC(=O)Nc2cnc(C)nc2)c1` (single isomer, unassigned) [Example 488 Enantiomer 1, 3-(4-(Ethyl(tetrahydro-2H-pyran-4-yl)amino)-3-(3-(2-methylpyrimidin-5-yl)ureido)phenyl)pentanoic acid], the IC50 is greater than 50 nM.

Take `CC[C@@H](CC(=O)O)c1ccc(N(CC)C2CCOCC2)c(NC(=O)Nc2ccc(Cl)cc2F)c1` (single isomer, unassigned) [Example 489]: the IC50 is less than 5 nM.

Regarding `CC[C@@H](CC(=O)O)c1ccc(N(CC)C2CCOCC2)c(NC(=O)Nc2ccc(F)cc2)c1` (single isomer, unassigned) [Example 490], the half-inhibitory concentration (IC50) is less than 50 nM.

Regarding `CC[C@@H](CC(=O)O)c1ccc(N(CC)C2CCOCC2)c(NC(=O)Nc2ccc(OC)cc2)c1` (single isomer, unassigned) [Example 492], the IC50 was less than 50 nM.

`CC[C@@H](CC(=O)O)c1ccc(N(CC)C2CCOCC2)c(NC(=O)Nc2ccc(OC)cc2F)c1` (single isomer, unassigned) [Example 493]: the IC50 is greater than 50 nM.

Regarding `CC[C@@H](CC(=O)O)c1ccc(N(CC)C2CCOCC2)c(NC(=O)Nc2ccc(Cl)cc2)c1` (single isomer, unassigned) [Example 494], the IC50 is greater than 50 nM.

With `CC[C@@H](CC(=O)O)c1ccc(N(CC)C2CCOCC2)c(NC(=O)Nc2ccc(Cl)nc2)c1` (single isomer, unassigned) [Example 495], the IC50 is greater than 50 nM.

Turning to `CC[C@@H](CC(=O)O)c1ccc(N(CC)C2CCOCC2)c(NC(=O)Nc2ccc3c(c2)CS(=O)(=O)C3)c1` (single isomer, unassigned) [Example 496], the IC50 is greater than 50 nM.

Take `CC[C@@H](CC(=O)O)c1ccc(N(CC)C2CCOCC2)c(NC(=O)Nc2cc(C)on2)c1` (single isomer, unassigned) [Example 497]: the IC50 was greater than 50 nM.

Consider `CCOc1ncc(Nc2cc([C@H](CC)CC(=O)O)ccc2N(CC)C2CCOCC2)cn1` (single isomer, unassigned) [Example 498], for which the half-inhibitory concentration (IC50) was less than 5 nM.

As to `CC[C@H](CC(=O)O)c1ccc(N(CC)C2CCOCC2)c(Nc2ccc(Cl)cc2)c1` (single isomer, unassigned) [Example 499], the IC50 is less than 5 nM.

As to `CCc1cnc(Nc2cc([C@H](CC)CC(=O)O)ccc2N(CC)C2CCOCC2)nc1` (single isomer, unassigned) [Example 500], the IC50 is greater than 50 nM.

Regarding `CC[C@H](CC(=O)O)c1ccc(N(CC)C2CCOCC2)c(Nc2ccc(C#N)cc2)c1` (single isomer, unassigned) [Example 501], the concentration for half-maximal inhibition (IC50) was less than 5 nM.

Turning to `CC[C@H](CC(=O)O)c1ccc(N(CC)C2CCOCC2)c(Nc2ccn3nccc3n2)c1` (single isomer, unassigned) [Example 511], the IC50 is greater than 50 nM.

`CC[C@H](CC(=O)O)c1ccc(N(CC)C2CCOCC2)c(Nc2ccc3nncn3c2)c1` (single isomer, unassigned) [Example 512]: the IC50 is greater than 50 nM.

In the case of `CC[C@H](CC(=O)O)c1ccc(N(CC)C2CCOCC2)c(Nc2ccn3nc(C)c(F)c3c2)c1` (single isomer, unassigned) [Example 513], the 50% inhibitory concentration (IC50) was less than 50 nM.

As to `CC[C@H](CC(=O)O)c1ccc(N(CC)C2CCOCC2)c(Nc2ccc(OCC(F)(F)F)cc2)c1` (single isomer, unassigned) [Example 515], the half-inhibitory concentration (IC50) is less than 5 nM.

As to `CC[C@H](CC(=O)O)c1ccc(N(CC)C2CCOCC2)c(Nc2ccc(OCC3CC3)cc2)c1` (single isomer, unassigned) [Example 516], the IC50 was less than 5 nM.

Consider `CCc1ccc(Nc2cc([C@H](CC)CC(=O)O)ccc2N(CC)C2CCOCC2)cc1` (single isomer, unassigned) [Example 517], for which the IC50 is less than 5 nM.

On to `CC[C@H](CC(=O)O)c1ccc(N(CC)C2CCOCC2)c(Nc2ccc(OC)nc2)c1` (single isomer, unassigned) [Example 518], for which the IC50 was less than 5 nM.

On to `CC[C@H](CC(=O)O)c1ccc(N(CC)C2CCOCC2)c(Nc2cnc(OC)nc2)c1` (single isomer, unassigned) [Example 519], for which the concentration for half-maximal inhibition (IC50) is less than 5 nM.

Consider `CC[C@H](CC(=O)O)c1ccc(N(CC)C2CCOCC2)c(Nc2cnc(OCC3CC3)nc2)c1` (single isomer, unassigned) [Example 520], for which the IC50 was less than 5 nM.

With `CC[C@H](CC(=O)O)c1ccc(N(CC)C2CCOCC2)c(Nc2ccc(Cl)c(OC)c2)c1` (single isomer, unassigned) [Example 521], the half-inhibitory concentration (IC50) is less than 50 nM.

For `CCOc1ccc(Nc2cc([C@H](CC)CC(=O)O)ccc2N(CC)C2CCOCC2)nc1` (single isomer, unassigned) [Example 522], the IC50 was less than 5 nM.

On to `CC[C@H](CC(=O)O)c1ccc(N(CC)C2CCOCC2)c(Nc2cn3ccnc3cn2)c1` (single isomer, unassigned) [Example 523], for which the IC50 is greater than 50 nM.

Turning to `CC[C@H](CC(=O)O)c1ccc(N(CC)C2CCOCC2)c(Nc2ccc3nc(C)sc3c2)c1` (single isomer, unassigned) [Example 524], the IC50 was less than 50 nM.

With `CC[C@H](CC(=O)O)c1ccc(N(CC)C2CCOCC2)c(NC(=O)Nc2ccc(Cl)cc2F)c1` (single isomer, unassigned) [Example 526], the 50% inhibitory concentration (IC50) is less than 5 nM.

For the compound `CC[C@H](CC(=O)O)c1ccc(N(CC)C2CCOCC2)c(NC(=O)Nc2ccc(F)cc2)c1` (single isomer, unassigned) [Example 527], the IC50 is less than 50 nM.

Turning to `CCOc1ccc(NC(=O)Nc2cc([C@H](CC)CC(=O)O)ccc2N(CC)C2CCOCC2)cc1` (single isomer, unassigned) [Example 528], the IC50 is less than 50 nM.

Consider `CC[C@H](CC(=O)O)c1ccc(N(CC)C2CCOCC2)c(NC(=O)Nc2ccc(OC)cc2)c1` (single isomer, unassigned) [Example 529], for which the IC50 was less than 50 nM.

Turning to `CC[C@H](CC(=O)O)c1ccc(N(CC)C2CCOCC2)c(NC(=O)Nc2ccc(OC)cc2F)c1` (single isomer, unassigned) [Example 530], the IC50 is less than 5 nM.

As to `CC[C@H](CC(=O)O)c1ccc(N(CC)C2CCOCC2)c(NC(=O)Nc2ccc(Cl)cc2)c1` (single isomer, unassigned) [Example 531], the IC50 was less than 5 nM.
